Columns and labels:
Assay type in all cases: toxicity, cell-based
HEK-293T = assay: Incucyte cell viability with HEK293T; conditions: human, 10 µM, compound concentration 10 uM
U2OS = assay: Incucyte cell viability with U2OS; conditions: human, 10 µM, compound concentration 10 uM
Fibroblast = assay: Incucyte cell viability with human fibroblast; conditions: 10 µM, compound concentration 10 uM
[1] = 0 h, replicate number 1, timepoint 0 hours
[2] = 6 h, replicate number 1, timepoint 6 hours
[3] = 24 h, replicate number 2, timepoint 24 hours
[4] = 12 h, replicate number 1, timepoint 12 hours
[5] = 12 h, replicate number 2, timepoint 12 hours
[6] = 18 h, replicate number 1, timepoint 18 hours
[7] = 24 h, replicate number 1, timepoint 24 hours
[8] = 6 h, replicate number 2, timepoint 6 hours
[9] = 0 h, replicate number 2, timepoint 0 hours
[10] = 18 h, replicate number 2, timepoint 18 hours
Further: filed as whole numbers so only -1 and 0 and 1 occur.

Row | Compound | Growth Rate (HEK-293T; [1]) | Growth Rate (HEK-293T; [2]) | Growth Rate (HEK-293T; [3]) | Growth Rate (U2OS; [1]) | Growth Rate (U2OS; [2]) | Growth Rate (U2OS; [4]) | Growth Rate (U2OS; [6]) | Growth Rate (U2OS; [7]) | Growth Rate (Fibroblast; [1]) | Growth Rate (Fibroblast; [2]) | Growth Rate (Fibroblast; [4]) | Growth Rate (Fibroblast; [6]) | Growth Rate (Fibroblast; [7]) | Growth Rate (HEK-293T; [6]) | Growth Rate (HEK-293T; [7]) | Growth Rate (HEK-293T; [4]) | Growth Rate (Fibroblast; [9]) | Growth Rate (Fibroblast; [10]) | Growth Rate (U2OS; [9]) | Growth Rate (HEK-293T; [9]) | also measured
1 | O=C(NS(=O)(=O)c1ccc(NCC2CCOCC2)c([N+](=O)[O-])c1)c1ccc(N2CCN(Cc3ccc(C(F)(F)F)cc3-c3ccc(Cl)cc3)CC2)cc1Oc1cnc2[nH]ccc2c1 [A-1210227] | 0 | 0 | 1 | 0 | 0 | 1 | 0 | 1 | 0 | 1 | 1 | 1 | 1 |  |  |  |  |  |  |  | Growth Rate (U2OS; [5]): 0; Growth Rate (U2OS; [3]): 0
2 | CO[C@H]1CC[C@H](CNc2ccc(S(=O)(=O)NC(=O)c3ccc(N4CCN(CC5=C(c6ccc(Cl)cc6)CC(C)(C)CC5)CC4)cc3Oc3cnc4[nH]ccc4c3)cc2[N+](=O)[O-])CC1 [A-1211212] | 0 |  | 0 | 0 | 1 | 0 | 0 | 0 | 0 | 0 | 0 | 0 | 0 | 1 | 1 |  |  |  |  |  | Growth Rate (HEK-293T; [8]): 1; Growth Rate (HEK-293T; [5]): 1; Growth Rate (U2OS; [5]): 1; Growth Rate (U2OS; [3]): 1
3 | C[C@]12CCC(=O)C=C1CC[C@@H]1[C@@H]2[C@@H](O)C[C@]2(C=O)[C@@H](C(=O)CO)CC[C@@H]12 [ALDOSTERONE] | 0 |  |  | 0 |  | 1 | 1 | 1 | 0 | 0 | 1 | 1 | 1 | 1 | 1 | 1 | 1 | 0 |  |  | Growth Rate (HEK-293T; [8]): 1; Growth Rate (HEK-293T; [5]): 0; Growth Rate (U2OS; [8]): 1; Growth Rate (Fibroblast; [5]): 0
4 | Cc1nc(NC(=O)N2CCC[C@H]2C(N)=O)sc1-c1ccnc(C(C)(C)C(F)(F)F)c1 [ALPELISIB] |  | 0 |  | 1 | 1 | 1 | 0 | 0 | 1 |  | 1 | 1 | 1 | 1 | 1 |  | 0 | 0 | 0 |  | Growth Rate (HEK-293T; [5]): 0; Growth Rate (U2OS; [10]): 1; Growth Rate (U2OS; [3]): 1; Growth Rate (Fibroblast; [8]): 1; Growth Rate (Fibroblast; [5]): 0; Growth Rate (Fibroblast; [3]): 0
5 | CC(C)C[C@H](CO)Nc1nc(S[C@@H](C)c2ccccc2)nc2nc(N)sc12 [AZD-8797] | 1 | 0 |  |  | 0 | 0 | 0 | 0 | 1 | 0 | 0 | 0 | 0 | 0 | 0 | 0 | 0 | 1 |  | 0 | Growth Rate (HEK-293T; [8]): 1; Growth Rate (HEK-293T; [5]): 1; Growth Rate (Fibroblast; [5]): 1; Growth Rate (Fibroblast; [3]): 1
6 | Cc1c(NC(=O)c2cc(C(N)=O)nc3cc(F)ccc23)c(C(F)(F)F)nn1Cc1ccc(C(C)(C)C)cc1 [BAY-588] | 0 | 0 |  |  |  | 1 | 0 | 1 | 0 | 0 | 0 | 0 | 0 | 0 | 0 | 0 |  |  | 0 |  | Growth Rate (U2OS; [10]): 1
7 | CC(=O)C1=C(C)N(c2cccc(C(F)(F)F)c2)C(=O)N[C@@H]1c1ccc(C#N)nc1 [BAY-678] | 0 |  |  | 0 | 0 | 0 | 0 | 0 | 1 | 1 | 0 | 0 | 0 | 1 | 1 |  | 0 |  |  | 1 | Growth Rate (U2OS; [5]): 1; Growth Rate (Fibroblast; [8]): 0
8 | Cc1c(NC(=O)c2cc(C(N)=O)nc3cc(F)ccc23)c(C(F)(F)F)nn1Cc1ccc(C#N)cc1 [BAY-876] |  | 0 |  | 1 | 1 | 0 | 0 | 0 | 0 | 0 | 0 | 0 | 0 | 0 | 0 | 0 |  |  | 0 | 0 | Growth Rate (U2OS; [8]): 0
9 | CN1CCN(c2cnc3c(C4CCN(C(=O)c5ccc(OC(F)(F)F)cc5N)CC4)ncnc3c2)CC1 [BAY-885] | 0 |  | 1 | 0 | 0 | 0 | 0 | 0 | 1 | 0 | 1 | 0 | 0 |  |  |  | 0 | 1 |  | 1 | Growth Rate (U2OS; [8]): 1; Growth Rate (U2OS; [5]): 1; Growth Rate (U2OS; [10]): 1; Growth Rate (U2OS; [3]): 1; Growth Rate (Fibroblast; [3]): 1
10 | C=C(c1ccc(C(=O)O)cc1)c1cc2c(cc1C)C(C)(C)CCC2(C)C [BEXAROTENE] | 1 | 0 |  | 0 |  | 1 | 1 | 1 | 0 |  | 1 | 1 | 1 | 0 | 0 | 0 |  |  | -1 | 0 | Growth Rate (HEK-293T; [8]): 1; Growth Rate (HEK-293T; [5]): 1
11 | CS(=O)(=O)NCC[C@H](NC(=O)c1cncc2c1cnn2-c1ccc(F)cc1)c1ccnc(S(C)(=O)=O)c1 [BI 9307] | 0 | 1 |  | 0 |  | 1 | 1 | 1 | 0 |  |  |  |  | 1 | 1 | 1 |  | 1 |  |  | Growth Rate (Fibroblast; [8]): 0; Growth Rate (Fibroblast; [5]): 0; Growth Rate (Fibroblast; [3]): 0
12 | CC(=O)N1CCC(c2ccc(C(=O)NC(=N)N)cc2C(F)(F)F)CC1 [BI 9627] | 0 |  |  |  | 1 | 1 | 1 | 1 | 0 | 1 | 0 | 1 | 0 | 1 | 1 | 1 | 1 | 0 | 0 |  | Growth Rate (HEK-293T; [8]): 1; Growth Rate (Fibroblast; [8]): 0
13 | COc1cc(N2CCC(N3CCN(C)CC3)CC2)ccc1Nc1ncc(Cl)c(Nc2ccccc2P(C)(C)=O)n1 [BRIGATINIB] |  | 0 | 0 | 0 | 0 | 0 | 0 | 0 | 1 | 0 | 0 | 0 | 0 | 1 | 1 | 0 |  |  |  |  | Growth Rate (U2OS; [5]): 1
14 | O=C1NC(c2ccccn2)Sc2ccccc21 (stereo unspecified) [BTZO-4] | 1 | 0 | 0 | 0 | 0 | 0 | 0 | 0 | 0 | 1 | 1 | 1 | 0 | 0 | 1 | 0 |  |  |  |  | Growth Rate (HEK-293T; [10]): 1; Growth Rate (U2OS; [5]): 1; Growth Rate (U2OS; [10]): 1; Growth Rate (U2OS; [3]): 1; Growth Rate (Fibroblast; [3]): 1
15 | O=C(NOCC1CC1)c1ccc(F)c(F)c1Nc1ccc(I)cc1Cl [CI-1040] | 0 |  |  | 0 | 0 | 0 | 0 | 0 | 0 |  | 1 | 1 | 1 | 0 | 0 | 0 |  |  |  | 1 | Growth Rate (HEK-293T; [8]): 0; Growth Rate (Fibroblast; [8]): 1
16 | C#C[C@]1(O)CC[C@H]2[C@@H]3CCc4cc(O)ccc4[C@H]3CC[C@@]21C [ETHINYL ESTRADIOL] | -1 |  | 1 |  | 0 | 0 | 0 | 0 |  | 0 | 0 | 0 | 0 |  |  |  |  |  | 0 | 0 | Growth Rate (U2OS; [8]): 1
17 | CC(C)(C(=O)O)c1ccc(C(O)CCCN2CCC(C(O)(c3ccccc3)c3ccccc3)CC2)cc1.Cl (stereo unspecified) [FEXOFENADINE HYDROCHLORIDE] | 1 | 1 |  |  |  | 1 | 1 | 1 | 0 | 0 | 0 | 0 | 0 | 1 | 1 | 1 | 1 | 1 | 0 | 0 | Growth Rate (U2OS; [8]): 0; Growth Rate (U2OS; [10]): 0; Growth Rate (U2OS; [3]): 0; Growth Rate (Fibroblast; [5]): 1; Growth Rate (Fibroblast; [3]): 1
18 | O=C(Nc1nc2cccc(-c3ccc(CN4CCS(=O)(=O)CC4)cc3)n2n1)C1CC1 [FILGOTINIB] | 0 | 0 |  | 1 | 1 | 0 | 0 | 0 | 0 | 1 | 0 | 0 | 0 | 0 | 0 | 0 |  |  |  |  | Growth Rate (U2OS; [8]): 0; Growth Rate (Fibroblast; [8]): 0
19 | CC(C)(C)OC(=O)N1CCCC1CNC1CCC(c2cc(F)ccc2F)(S(=O)(=O)c2ccc(Cl)cc2)CC1 (stereo unspecified) [GSI-NC] | 0 | 0 | 0 | 0 | 0 | 0 | 0 | 0 |  | 0 | 0 | 0 | 0 | 1 | 1 | 1 | 0 |  |  | 1 | Growth Rate (HEK-293T; [5]): 0; Growth Rate (Fibroblast; [8]): 1

Reference: ChEMBL document CHEMBL4689842, “EUbOPEN Chemogenomics Library wave 1” (2021)
